Patent EP4567040A1, “CRYSTAL FORM OF FUSED TRICYCLIC DERIVATIVE AND PREPARATION METHOD” (Jiangsu Hengrui Pharmaceuticals Co., Ltd., priority 2022, dated 2024)

Experiments:
[1] = tested on: DPX2 (HepG2 cells were stably transfected with the human PXR gene and the fluorescent reporter gene) cells; assay: Cell viability in the PXR induction assay (CellTiter-Fluor); type: cell-based
Experimental: • 1. The potential of the test compounds to induce the activity of drug metabolism enzymes through in vitro activation of PXR was evaluated. […] […] Experimental procedures • 3.1. Preparation for plating • 1) 50 mL of FBS was added to 450 mL of cell culture medium. • 2) DPX2 cells were cultured in a T-75 culture flask in a 37 °C, 5% CO2 incubator with 95% relative humidity. When covering 80-90% of the bottom of the culture flask, the cells were digested. • 3) The top layer of cells cultured in the T-75 culture flask was washed with 8 mL of PBS, and the PBS was pipetted off. The cells were digested with 3 mL of pancreatin at 37 °C for about 5 min or until they were floating in the pancreatin. 10 mL (excessive) of a serum-containing culture medium was added to neutralize the pancreatin. • 4) The cell suspension was transferred to a conical-bottomed centrifuge tube and centrifuged at 120 g for 10 min. The cells were suspended in the plating culture medium, and the concentration was adjusted to 4 × 10^5 cells/mL. The diluted cells were added to a 96-well cell culture plate at 100 µL/well. The culture plate was placed in an incubator and incubated at 37 °C for 24 h before the PXR activation experiment. • 3.2. […] […] The final concentration of DMSO was 0.1%. 1 µL of DMSO was added to a well containing 1 mL of pre-incubated culture medium as a solvent control. • 2) The cell culture plate was taken out of the incubator, and the culture medium was discarded. The test compounds and the positive compound were added to appropriate wells at 100 µL/well, and each group was tested in duplicate. The cell plate was placed in an incubator and incubated for 24 h. • 3.3. Quantification of PXR activation • 1) After […] of compound treatment, PXR activation was quantified for the culture. • 2) The CellTiter-Fluor™ cell viability assay kit and the One-Glo Luciferase reagent were equilibrated to room temperature. The GF-AFC (10 µL) substrate was added to Assay Buffer (10 mL) to form a 2× reagent, and the reagent was then diluted to 1× with 10 mL of PBS; the ONE-Glo substrate was added to the ONE-Glo Luciferase Assay buffer. • 3) The cell culture plate was taken out of the incubator, and the culture medium in each well was discarded. The plate was washed twice with PBS. The 1× CellTiter-Fluor™ reagent was added to a sterilized reagent reservoir, and 50 µL was transferred to each well using a multi-channel pipette. The plate was incubated at 37 °C for 30 min. • 4) The 96-well cell plate was taken out of the incubator, and the fluorescence in each well was measured using a microplate reader put in the fluorescence mode at an excitation wavelength of 400 nm and an emission wavelength of 505 nm. • 5) The ONE-Glo reagent was poured into a reagent reservoir, and then 50 µL was transferred to each well using a multi-channel pipette. The reagent was gently and well mixed, and the mixture was incubated and well mixed at room temperature for 5 min. After the incubation, the luminescence in each well was measured using a luminometer.
The calculation formula for cell viability: Percent cell viability (%) = I(sample)/(I(vehicle) × 100 [formula]
I(sample) represents the fluorescence intensity of the sample, and I(vehicle) represents the fluorescence intensity of 0.1% DMSO to cells.

human PXR = molecular target: T1, human PXR (Homo sapiens, UniProt O75469); assay: PXR induction assay in DPX2 cells (luciferase reporter); type: cell-based; details: for fold induction at 24 h, 0.123 µM: compound concentration 0.123 µM; for fold induction at 24 h, 10 µM: compound concentration 10.0 µM
T1 construct: host or cells: DPX2 (HepG2 stably transfected)
T1 sequence (O75469 1-434): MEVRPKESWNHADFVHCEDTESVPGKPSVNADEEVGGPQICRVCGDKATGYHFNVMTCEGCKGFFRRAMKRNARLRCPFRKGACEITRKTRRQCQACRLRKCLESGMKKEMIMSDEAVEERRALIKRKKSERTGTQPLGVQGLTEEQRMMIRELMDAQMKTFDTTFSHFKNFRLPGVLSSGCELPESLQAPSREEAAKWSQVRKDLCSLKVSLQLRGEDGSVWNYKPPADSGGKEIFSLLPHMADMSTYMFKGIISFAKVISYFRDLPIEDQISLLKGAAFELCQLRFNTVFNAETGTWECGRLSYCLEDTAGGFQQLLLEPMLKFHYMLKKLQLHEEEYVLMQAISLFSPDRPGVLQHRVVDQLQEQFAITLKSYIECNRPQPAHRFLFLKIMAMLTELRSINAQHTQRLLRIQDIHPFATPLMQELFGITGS
Experimental: • 1. […] The final concentration of DMSO was 0.1%. […] The reagent was gently and well mixed, and the mixture was incubated and well mixed at room temperature for 5 min.

CDK6/CyclinD3 = molecular target: T2, CDK6/CyclinD3 (Homo sapiens, UniProt Q00534); assay: Kinase activity assay, mobility shift assay (CDK6/CyclinD3); type: biochemical; details: Table 18; read-out: CDK6/D3 IC50
T2 construct: purchased Carna 04-107
T2 sequence (Q00534 whole entry): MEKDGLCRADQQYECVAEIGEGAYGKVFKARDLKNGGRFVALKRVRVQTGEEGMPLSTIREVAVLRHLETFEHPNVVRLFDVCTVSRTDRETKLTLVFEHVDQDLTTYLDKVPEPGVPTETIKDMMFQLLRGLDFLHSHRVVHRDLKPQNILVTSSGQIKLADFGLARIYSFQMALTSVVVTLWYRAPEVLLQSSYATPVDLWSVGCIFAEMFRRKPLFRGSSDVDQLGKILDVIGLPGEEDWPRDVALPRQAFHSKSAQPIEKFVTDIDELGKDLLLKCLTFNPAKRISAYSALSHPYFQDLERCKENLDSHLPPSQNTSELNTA
T2 sequence (P30281 whole entry partner): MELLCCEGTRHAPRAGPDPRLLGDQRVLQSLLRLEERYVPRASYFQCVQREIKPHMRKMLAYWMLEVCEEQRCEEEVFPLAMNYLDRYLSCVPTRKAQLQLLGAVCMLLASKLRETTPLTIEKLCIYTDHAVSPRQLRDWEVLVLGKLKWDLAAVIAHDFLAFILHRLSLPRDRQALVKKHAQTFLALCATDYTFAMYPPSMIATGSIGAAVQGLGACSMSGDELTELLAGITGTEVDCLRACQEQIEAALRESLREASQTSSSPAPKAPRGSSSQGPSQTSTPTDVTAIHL
Experimental: In vitro CDK kinase activity was tested using a mobility shift assay. […] A proper amount of kinase was added to the 1× kinase buffer to prepare a 2.5× enzyme solution. 5× compound dilutions (1× kinase buffer, 10% DMSO) corresponding to the test concentrations of the compounds were prepared. […] 5 µL of 5× compound dilution and 10 µL of 2.5× enzyme solution were added to reaction wells of a 384-well reaction plate. After thorough mixing, the plate was incubated at room temperature for 10 min. […] The reaction plate was incubated at 28 °C for 60 min (biochemical incubator model: SPX-100B-Z). 30 µL of stop solution was added to the 384-well reaction plate to stop the reactions, and the plate was centrifuged at 1000 rpm for 1 min.
IC50 values for the compounds were obtained by fitting using XLFit excel add-in version 5.4.0.8. Fitting formula: Y = Bottom + (Top−Bottom)/(1+((IC50/X))^(∧)HillSlope). [formula]

CDK1/CyclinB = molecular target: T3, CDK1/CyclinB (Homo sapiens, UniProt P06493); assay: Kinase activity assay, ADP-Glo (CDK1/CyclinB); type: biochemical; details: Table 18; read-out: CDK1/B IC50
T3 construct: purchased proqinase 0134-0135-1
T3 sequence (P06493 whole entry): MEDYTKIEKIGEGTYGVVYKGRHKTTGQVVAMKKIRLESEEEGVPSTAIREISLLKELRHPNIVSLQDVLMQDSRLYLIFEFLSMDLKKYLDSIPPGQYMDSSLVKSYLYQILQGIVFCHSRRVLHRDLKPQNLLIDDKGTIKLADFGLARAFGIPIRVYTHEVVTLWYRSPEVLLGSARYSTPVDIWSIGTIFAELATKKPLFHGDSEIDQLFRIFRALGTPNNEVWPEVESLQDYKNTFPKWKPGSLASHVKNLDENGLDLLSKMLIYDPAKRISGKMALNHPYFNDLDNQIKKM
T3 sequence (P14635 whole entry partner): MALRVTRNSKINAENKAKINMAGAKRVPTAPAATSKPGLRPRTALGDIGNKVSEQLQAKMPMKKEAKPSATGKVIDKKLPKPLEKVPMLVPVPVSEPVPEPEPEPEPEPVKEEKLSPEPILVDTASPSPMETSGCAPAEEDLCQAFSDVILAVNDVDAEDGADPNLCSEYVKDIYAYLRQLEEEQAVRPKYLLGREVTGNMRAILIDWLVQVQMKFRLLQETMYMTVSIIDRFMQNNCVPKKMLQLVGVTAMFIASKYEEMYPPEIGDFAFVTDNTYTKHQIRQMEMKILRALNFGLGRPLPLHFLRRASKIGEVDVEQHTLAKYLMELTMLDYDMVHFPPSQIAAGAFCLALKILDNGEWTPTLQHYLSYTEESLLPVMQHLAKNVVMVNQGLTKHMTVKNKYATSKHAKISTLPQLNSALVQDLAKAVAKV

CYP2D6 = CYP2D6 (Homo sapiens, UniProt P10635); assay: biochemical
CYP2D6, sequence (P10635 whole entry): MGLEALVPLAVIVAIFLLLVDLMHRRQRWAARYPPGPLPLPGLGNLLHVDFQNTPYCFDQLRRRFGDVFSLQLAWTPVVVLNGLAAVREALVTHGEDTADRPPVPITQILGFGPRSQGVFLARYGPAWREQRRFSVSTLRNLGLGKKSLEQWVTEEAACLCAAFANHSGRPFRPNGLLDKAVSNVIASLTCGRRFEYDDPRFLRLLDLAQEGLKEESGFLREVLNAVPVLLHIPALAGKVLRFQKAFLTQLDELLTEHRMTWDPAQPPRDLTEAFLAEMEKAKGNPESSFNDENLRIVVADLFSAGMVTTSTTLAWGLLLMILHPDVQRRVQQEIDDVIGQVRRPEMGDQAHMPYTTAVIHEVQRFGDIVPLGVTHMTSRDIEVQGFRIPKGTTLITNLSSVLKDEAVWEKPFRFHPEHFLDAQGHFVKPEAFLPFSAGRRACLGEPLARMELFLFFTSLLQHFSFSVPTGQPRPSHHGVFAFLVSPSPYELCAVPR
Experimental: The effects of different concentrations of the test compounds on the metabolic reactions of phenacetin (CYP1A2), diclofenac sodium (CYP2C9), S-mephenytoin (CYP2C19), bufuralol hydrochloride (CYP2D6), and midazolam (CYP3A4/5) were assessed by liquid chromatography-tandem mass spectrometry (LC/MS/MS).
Then, 200 µL of an acetonitrile solution containing 3% formic acid and 40 nM internal standard verapamil was added, and the mixture was centrifuged at 4000 rpm for 50 min. The mixture was cooled on ice for 20 min and centrifuged at 4000 rpm for 20 min to precipitate protein. 200 µL of the supernatant was taken for LC/MS/MS analysis.
The peak area was calculated based on the chromatogram. The residual activity proportion (%) was calculated using the following formula: peak area ratio = peak area of metabolite / peak area of internal standard [formula]
The half maximal inhibitory concentrations (IC50) against CYP were calculated using Excel XLfit 5.3.1.3.

CYP3A4 = CYP3A4 (Homo sapiens, UniProt P08684); assay: CYP inhibition assay in pooled human liver microsomes (CYP3A4, midazolam); type: in vitro ADME; details: pH 7.4, probe midazolam (3 µM), 37 °C, read-out: CYP 3A4 half maximal inhibitory concentration (IC50)
CYP3A4, sequence (P08684 2-503): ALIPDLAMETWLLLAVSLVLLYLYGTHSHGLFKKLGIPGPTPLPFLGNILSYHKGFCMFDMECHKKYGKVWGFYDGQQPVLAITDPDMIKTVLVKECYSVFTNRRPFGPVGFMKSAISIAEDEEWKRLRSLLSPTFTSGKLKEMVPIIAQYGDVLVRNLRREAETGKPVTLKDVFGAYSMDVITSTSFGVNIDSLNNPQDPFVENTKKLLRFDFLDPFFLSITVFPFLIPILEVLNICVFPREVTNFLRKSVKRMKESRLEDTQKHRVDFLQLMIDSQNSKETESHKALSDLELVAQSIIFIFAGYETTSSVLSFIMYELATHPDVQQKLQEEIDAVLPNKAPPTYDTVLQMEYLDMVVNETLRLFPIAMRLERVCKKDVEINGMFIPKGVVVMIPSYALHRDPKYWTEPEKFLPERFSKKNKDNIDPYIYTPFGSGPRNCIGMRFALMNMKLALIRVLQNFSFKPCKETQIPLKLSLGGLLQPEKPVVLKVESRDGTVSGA

[2] = compound concentration 0.123 µM

fold induction at 24 h, 0.123 µM (human PXR)	fold induction at 24 h, 10 µM (human PXR)	IC50 (CDK6/CyclinD3)	IC50 (CDK1/CyclinB)	IC50 (CYP2D6)	IC50 at 5 min (CYP3A4)	Structure (SMILES)	Cell viability (%) [1, 2]	Cell viability (%) ([1]; compound concentration 10.0 µM)
0.87	1.43	105 nM	> 1000 nM	> 30000 nM	> 30000 nM	C[C@H]1COc2c(-c3nc(N[C@@H]4CCOC[C@H]4O)ncc3Cl)cc(F)c3nc(C(C)(C)O)n1c23 (single isomer, unassigned) [Isomer 1 with a retention time of 2.078 min]	99.16%	117.18%
0.99	1.48	228 nM	> 1000 nM	> 30000 nM	> 30000 nM	C[C@@H]1COc2c(-c3nc(N[C@@H]4CCOC[C@H]4O)ncc3Cl)cc(F)c3nc(C(C)(C)O)n1c23 (single isomer, unassigned) [Isomer 2 with a retention time of 1.887 min]	102.41%	108.37%
